Article PMC9138683, “Decoding the Role of Melatonin Structure on Plasmodium falciparum Human Malaria Parasites Synchronization Using 2-Sulfenylindoles Derivatives” (Biomolecules, 2022)
“Also recorded” adds a separate entry of the source.

Tested on: Plasmodium falciparum Dd2 (chloroquine-resistant)
Test: In vitro drug susceptibility assay, Dd2 strain (flow cytometry, SYBR Green I / MitoTracker Deep Red)
Assay type: cell-based
Conditions: Plasmodium falciparum, DD2, 72 h, asynchronous parasites, 72 h, 0.1-100 µM; read-out: IC50 ± SD PfDd2
Procedure: (§1) The cultures were maintained under an atmosphere of 5% CO2, 5% O2, and 90% N2. Fresh complete medium was provided daily, and rapid-stained (Panotico) blood smears were examined.
(§2) To evaluate the effects of synthetic compounds on the intraerythrocytic development of P. falciparum, we analyzed parasitemia by flow cytometry with 0.3% initial parasitemia and 1% hematocrit in the assay. Plates were incubated with the compounds at concentrations ranging from 0.10 to 100 µM for 72 h. Dual staining with SYBR Green I (SG-I) (Invitrogen, Waltham, MA, USA) and MitoTracker Deep Red (MT-Red) (Invitrogen) were used to label nucleic acids and mitochondria, respectively. Approximately 10,000 cells were counted by an Accuri C6 (Becton Dickinson, San Jose, CA, USA) and analyzed by FlowJo 5 software. Parasitemia was determined from the analysis of dot plots (side scatter versus fluorescence).
(§3) We determined the susceptibility of P. falciparum to the indole compounds and investigated whether CQR parasites responded differently to the compounds. […] We determined the IC50 values for each compound by analyzing viable and non-viable parasites after compound treatment, represented in dot plots (Figure 1H).

Compound	IC50
CCSc1[nH]c2ccccc2c1CC(=O)OC [Compound 17]	35.4 ± 1.56 µM
COC(=O)Cc1c(Sc2cccc(O)c2)[nH]c2ccccc12 [Compound 7]	55.4 ± 2.96 µM
COC(=O)Cc1c(SC(C)(C)C)[nH]c2ccccc12 [Compound 16]	48.5 ± 2.88 µM
COC(=O)Cc1c(Sc2ncccn2)[nH]c2ccccc12 [Compound 10]	43.6 ± 3.06 µM
COC(=O)Cc1c(SCc2ccccc2)[nH]c2ccccc12 [Compound 14]	37.1 ± 7.66 µM
c1ccc(Cc2c(Sc3ccccc3)[nH]c3ccccc23)cc1 [Compound 26]	35.8 ± 4.64 µM

Same assay, conditions: Plasmodium falciparum, DD2, 72 h, read-out: IC50 ± SD PfDd2

Compound	IC50
CCN(CC)CCCC(C)Nc1ccnc2cc(Cl)ccc12 (stereo not shown) [Chloroquine, reference compound]	0.199 ± 0.0262 µM

Tested on: not listed separately
Test: Cytotoxicity assay (MTT)
Assay type: cell-based, human
Conditions: human, HEK293T (HEK293) cells, 0.10-100 µM, read-out: CC50 ± SD HEK293
Procedure: HEK293T (human embryonic kidney) cells were cultured in 75 cm^2 vented tissue culture flasks (Greiner Bio-One, Frickenhausen, Germany) at 37 °C in a humidified atmosphere containing 5% CO2 in Dulbecco’s modified […] (Gibco) supplemented with 10% (v/v) fetal bovine serum (Gibco), 100 U/mL penicillin, and 100 μg/mL streptomycin (Sigma). Cytotoxicity was evaluated with the 4,5-dimethylthiazol-2-yl-2,5-diphenyltetrazolium bromide (MTT) cell proliferation assay. Briefly, 10^4 cells/well were seeded in flat-bottom 96-well plates in complete DMEM medium for 24 h, followed by incubation with different concentrations of each compound (0.10–100 µM) for 72 h. DMSO (0.13%) and digitonin were used as the negative and positive controls, respectively. The concentrations of DMSO chosen as control were the concentration present in the tested compounds (from 0.0001% to 0.12%, two-fold dilution). After 72 h, cells were then incubated with the MTT reagent for 3 h, and absorbance was measured at 570 nm using a FlexStation® 3 Multi-Mode Microplate Reader (Molecular Devices, Sunnyvale, CA, USA). Moreover, we calculated the selectivity indexes (SI) to understand whether the compounds were more toxic to parasites than cells, or vice versa, according to the ratio of the CC50 value to the IC50 value for each compound.
We further assessed the toxicity of 2-sulfenylindole compounds against HEK293 cells using the MTT assay with different concentrations of the compounds for 72 h. Table 1 presents all the toxicity data and summarizes the IC50 values of the compounds evaluated in this study for Dd2 and 3D7 strains.

Compound	CC50 at 72 h
CCSc1[nH]c2ccccc2c1CC(=O)OC [Compound 17]	26.5 ± 4.67 µM
COC(=O)Cc1c(Sc2cccc(O)c2)[nH]c2ccccc12 [Compound 7]	31.6 ± 4.03 µM
COC(=O)Cc1c(SC(C)(C)C)[nH]c2ccccc12 [Compound 16]	26.5 ± 8.7 µM
COC(=O)Cc1c(Sc2ncccn2)[nH]c2ccccc12 [Compound 10]	> 100 µM
COC(=O)Cc1c(SCc2ccccc2)[nH]c2ccccc12 [Compound 14]	23.7 ± 8.54 µM
c1ccc(Cc2c(Sc3ccccc3)[nH]c3ccccc23)cc1 [Compound 26]	34.7 ± 8.44 µM

Tested on: Plasmodium falciparum 3D7 (chloroquine-sensitive)
Test: In vitro drug susceptibility assay, 3D7 strain (flow cytometry, SYBR Green I / MitoTracker Deep Red)
Assay type: cell-based
Conditions: Plasmodium falciparum, 3D7, 72 h, asynchronous parasites, 72 h, 0.1-100 µM; read-out: IC50 ± SD Pf3D7
Procedure: as §1, §2, §3

Compound	IC50
CCSc1[nH]c2ccccc2c1CC(=O)OC [Compound 17]	25 ± 2.9 µM
COC(=O)Cc1c(Sc2cccc(O)c2)[nH]c2ccccc12 [Compound 7]	58.2 ± 2.45 µM
COC(=O)Cc1c(SC(C)(C)C)[nH]c2ccccc12 [Compound 16]	31.7 ± 5.09 µM
COC(=O)Cc1c(Sc2ncccn2)[nH]c2ccccc12 [Compound 10]	54.9 ± 2.25 µM
COC(=O)Cc1c(SCc2ccccc2)[nH]c2ccccc12 [Compound 14]	20.9 ± 2.97 µM
c1ccc(Cc2c(Sc3ccccc3)[nH]c3ccccc23)cc1 [Compound 26]	< 20 µM

Same assay, conditions: Plasmodium falciparum, 3D7, 72 h, read-out: IC50 ± SD Pf3D7

Compound	IC50
CCN(CC)CCCC(C)Nc1ccnc2cc(Cl)ccc12 (stereo not shown) [Chloroquine, reference compound]	0.0223 ± 0.00417 µM

Same assay, conditions: asynchronous parasites, 72 h, 0.1-100 µM; read-out: IC50 ± SD Pf3D7

Compound	IC50
c1ccc(Cc2c(Sc3ccccc3)[nH]c3ccccc23)cc1 [Compound 26]	13.5 ± 2.37 µM

Tested on: P. falciparum 3D7 parasites
Test: Effect of 2-sulfenylindoles in combination with 100 nM melatonin on parasitemia
Assay type: cell-based, Plasmodium falciparum
Conditions: 500 nM compound + 100 nM melatonin, 3D7, 48 h, versus control group (100.7%)
Procedure: (§4) To evaluate the role of the compounds in parasitemia, 1% 3D7 parasites in 2% hematocrit were incubated for 48 h with 500 nM of the 2-sulfenylindole derivatives. Melatonin (100 nM) was used as a positive control, and DMSO (0.0013% v/v) was used as a negative control. The concentration of DMSO chosen as control was the concentration present in the tested compounds at 500 nM. The activity of the compounds was measured by SG-I and MT-Red staining. The data obtained were normalized to those of the control (DMSO). Additionally, to test the ability of the compounds to affect melatonin activity in parasitemia, 3D7 parasites were incubated with 500 nM indole compounds along with 100 nM melatonin for 48 h.
Following the assumption that compounds resembling melatonin structure might interact through the melatonin signaling pathways, we evaluated the effect of the compounds on melatonin action on parasitemia. Our next step was to study the combination of 2-sulfenylindoles with melatonin in asynchronous 3D7 by incubating parasites simultaneously with 100 nM melatonin and 500 nM of each compound.

Compound	increase in parasitemia compared to control group
COC(=O)Cc1c(Sc2cccc(O)c2)[nH]c2ccccc12 [Compound 7]	22.2%

Same assay, conditions: 3D7, 48 h, normalized to DMSO control

Compound	Parasitemia (%) Treatment with compound (500nM) + Melatonin (100nM)
CCSc1[nH]c2ccccc2c1CC(=O)OC [Compound 17]	123.6 ± 3.11%
COC(=O)Cc1c(Sc2cccc(O)c2)[nH]c2ccccc12 [Compound 7]	122.9 ± 5.60%
COC(=O)Cc1c(SC(C)(C)C)[nH]c2ccccc12 [Compound 16]	127.4 ± 4.10%
COC(=O)Cc1c(Sc2ncccn2)[nH]c2ccccc12 [Compound 10]	130.2 ± 6.02%
COC(=O)Cc1c(SCc2ccccc2)[nH]c2ccccc12 [Compound 14]	128.5 ± 4.13%
c1ccc(Cc2c(Sc3ccccc3)[nH]c3ccccc23)cc1 [Compound 26]	110.4 ± 3.18%

Tested on: P. falciparum 3D7 strain
Test: Blood-stage development evaluation by microscopy
Assay type: cell-based, Plasmodium falciparum
Conditions: ring-stage synchronized 3D7, treated at IC50 (30 µM for 20 and 28), monitored every 12 h
Procedure: Ring-stage parasites (10–14 h) at 1% parasitemia in 2% hematocrit were treated with compound 20 and compound 28 at concentrations of 1 and 30 µM in 24-well plates for 48 h. Treatment with chloroquine (20 nM) and DMSO (0.1%) was used as positive and negative controls. Smears were rapid stained (Panotico) every 12 h after treatment (12, 24, 36, 48, and 60 h time points), and we took images of parasites to assess the blood-stage development (Zeiss, Oberkochen, Germany).
During monitoring, parasites continued to develop throughout the cycle in the presence of both compounds. […] To examine its stage specificity, we monitored development every 12 h.
Figure 5 Parasitemia reduction with compound 20 (A) and compound 28 (B) to determine the stage activity. Data are means ± SD. Ring-stage synchronized parasites with sorbitol 5% were treated with chloroquine (20 nM), compound 20 (30 µM), and compound 28 (30 µM). The chosen treatment concentration was the IC50 values obtained for these compounds against the 3D7 parasites. (C) After drug administration, smears of P. falciparum 3D7 strain were taken at 0, 12, 24, 36, 48, and 60 h after drug administration, observing the growth development of treated parasites. * p ≤ 0.05, ** p ≤ 0.01, *** p ≤ 0.001.

Compound	stage-specific effect on blood-stage development
c1ccc(Cc2c(Sc3ccccc3)[nH]c3ccccc23)cc1 [Compound 26]	reduced the progress from rings to trophozoites; also recorded: affect ring to trophozoite progression

Tested on: P. falciparum 3D7 parasites
Test: Effects of indole derivatives (500 nM) on parasitemia
Assay type: cell-based, Plasmodium falciparum
Conditions: 500 nM compound alone, 3D7 asynchronous, 48 h
Procedure: as §4
After incubation, the final parasitemia was determined using flow cytometry.

Compound	effect on parasitemia (in words)
CCSc1[nH]c2ccccc2c1CC(=O)OC [Compound 17]	did not affect parasitemia
COC(=O)Cc1c(SC(C)(C)C)[nH]c2ccccc12 [Compound 16]	led to an increase in parasitemia

Same assay, conditions: 500 nM compound, 3D7, 48 h, compared to DMSO control

Compound	decrease in parasitemia
COC(=O)Cc1c(Sc2cccc(O)c2)[nH]c2ccccc12 [Compound 7]	4.05%
c1ccc(Cc2c(Sc3ccccc3)[nH]c3ccccc23)cc1 [Compound 26]	7.94%

Same assay, conditions: 500 nM compound, 3D7, 48 h, compared to DMSO control (100.6%)

Compound	increase in parasitemia
COC(=O)Cc1c(SC(C)(C)C)[nH]c2ccccc12 [Compound 16]	11.2%

Same assay, conditions: Plasmodium falciparum; 3D7, 48 h, normalized to DMSO control; read-out: Parasitemia (%) Treatment with compound (500nM)

Compound	activity at 0.5 µM
CCSc1[nH]c2ccccc2c1CC(=O)OC [Compound 17]	98.6 ± 2.95%
COC(=O)Cc1c(Sc2cccc(O)c2)[nH]c2ccccc12 [Compound 7]	96.5 ± 2.39%
COC(=O)Cc1c(SC(C)(C)C)[nH]c2ccccc12 [Compound 16]	112 ± 1.76%
COC(=O)Cc1c(Sc2ncccn2)[nH]c2ccccc12 [Compound 10]	101 ± 2.14%
COC(=O)Cc1c(SCc2ccccc2)[nH]c2ccccc12 [Compound 14]	97.8 ± 3.41%
c1ccc(Cc2c(Sc3ccccc3)[nH]c3ccccc23)cc1 [Compound 26]	92.7 ± 4.17%
